Values of other authors as cited in patent US20070122366A1 (priority 2005, published 2007).

What was measured:
[1] = oral administration

CN(C/C=C/C#CC(C)(C)C)Cc1cccc2ccccc12 [Terbinafine]
average mycological cure (onychomycosis; 18 randomized controlled trials, onychomycosis): 76% | activity in comparative studies (onychomycosis; treatment of toenail onychomycosis): greater than itraconazole and fluconazole | persistence of concentration in nails ([1]; after the treatment has finished): at least 30 weeks | time at which concentration in nails is detected ([1]; after therapy started): within the first week
